Numbering of substitutions follows the chain as printed. “And” between values parts separate entries of the source, which are not always exact repeats. Equal values may be shown once. Read-outs that look alike come from different tables or passages of the source.
Key:
Format in all cases: cell-based
hTA1 = target: T1, hTA1 (Homo sapiens, UniProt Q96RJ0); assay: GloSensor cAMP accumulation assay, concentration response, wild-type hTA1 in transfected HEK293T cells; settings: for Emax: HEK-293T; for Dose-response curves for asenapine vs endogenous trace amines / Normalized Luminescence Counts for WT hTA1: log[Compound]; for Dose-response curves for asenapine vs endogenous trace amines: replicate values (N=2); for Normalized Luminescence Counts for WT hTA1: replicate wells;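 on all read-outs here: luminescence read after 30 min compound exposure at room temperature in cells preloaded with D-Luciferin, reflecting Gs-driven cAMP rise, efficacy scaled to the maximal β-PEA response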
T1 construct: expressed in transfected cells; host or cells: HEK293T
T1 sequence (Q96RJ0 1-339): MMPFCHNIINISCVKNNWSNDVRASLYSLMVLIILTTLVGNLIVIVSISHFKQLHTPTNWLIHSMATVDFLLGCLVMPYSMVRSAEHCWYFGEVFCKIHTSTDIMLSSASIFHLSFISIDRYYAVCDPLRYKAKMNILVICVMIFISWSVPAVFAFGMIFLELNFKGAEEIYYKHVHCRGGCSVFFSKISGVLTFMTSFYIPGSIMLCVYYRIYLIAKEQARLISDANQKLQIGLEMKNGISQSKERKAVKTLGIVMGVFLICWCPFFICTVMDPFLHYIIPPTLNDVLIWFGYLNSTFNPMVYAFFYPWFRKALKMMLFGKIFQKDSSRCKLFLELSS

hTA1 C5S = target: T2, hTA1 C5S (Homo sapiens, UniProt Q96RJ0, C5S); assay: GloSensor cAMP accumulation assay, C5S mutant; settings: C5S, n=2
T2 construct: expressed in transfected cells; host or cells: HEK293T
T2 sequence (Q96RJ0 1-339 C5S): T1 sequence (Q96RJ0 1-339) with C5S

hTA1 C88/178S = target: T3, hTA1 C88/178S (Homo sapiens, UniProt Q96RJ0, C178S/C88S); assay: GloSensor cAMP accumulation assay, C88S/C178S double mutant
T3 construct: expressed in transfected cells; host or cells: HEK293T
T3 sequence (Q96RJ0 1-339 C88S/C178S): T1 sequence (Q96RJ0 1-339) with C88S, C178S

hTA1 V184P = target: T4, hTA1 V184P (Homo sapiens, UniProt Q96RJ0, V184P); assay: GloSensor cAMP accumulation assay, V184P mutant
T4 construct: expressed in transfected cells; host or cells: HEK293T
T4 sequence (Q96RJ0 1-339 V184P): T1 sequence (Q96RJ0 1-339) with V184P

[1] = read-out: Span ± SEM (Emax normalized to β-PEA)

CN1CC2c3ccccc3Oc3ccc(Cl)cc3C2C1 (stereo not drawn) [asenapine]
Emax (hTA1; WT, Avg of the experiment means, read-out: Emax values, Avg): 88.7% | Emax (hTA1; WT, Mean of one experiment (3 replicates), read-out: Emax values): 91% | Emax (hTA1; wt hTA1, relative to β-PEA, read-out: Emax): 88.7% | Emax values, Avg (hTA1; WT, Asenapine, average of the two experiments): 88.71 | Emax values, Mean (hTA1; WT, Asenapine, mean of one experiment, 3 replicates): 91.0389 and 86.3756 | Emax values (hTA1; WT, Mean of one experiment (3 replicates)): 86.3756 | EC50 (hTA1; WT, Mean of one experiment (3 replicates), read-out: pEC50 values (converted)): 279 nM | Dose-response curves for asenapine vs endogenous trace amines (hTA1; M = -5): 79.6771 and 96.2124 and 92.251 and 83.6538 and 87.8328 and 80.7895 | Normalized Luminescence Counts for WT hTA1 (hTA1; M = -5): 83.6538 and 87.8328 and 80.7895 and 79.6771 and 96.2124 and 92.251 | Dose-response curves for asenapine vs endogenous trace amines (hTA1; M = -5.522): 74.87 and 93.5418 and 84.1725 and 79.0052 and 76.9861 and 71.9618 | Normalized Luminescence Counts for WT hTA1 (hTA1; M = -5.522): 79.0052 and 76.9861 and 71.9618 and 74.87 and 93.5418 and 84.1725 | Dose-response curves for asenapine vs endogenous trace amines (hTA1; M = -6): 68.5274 and 68.3939 and 69.9517 and 72.9948 and 71.8209 and 62.9463 | Normalized Luminescence Counts for WT hTA1 (hTA1; M = -6): 72.9948 and 71.8209 and 62.9463 and 68.5274 and 68.3939 and 69.9517 | Dose-response curves for asenapine vs endogenous trace amines (hTA1; M = -6.522): 47.5189 and 49.5663 and 40.1525 and 38.2946 and 48.7657 and 45.4788 | Normalized Luminescence Counts for WT hTA1 (hTA1; M = -6.522): 38.2946 and 48.7657 and 45.4788 and 47.5189 and 49.5663 and 40.1525 | Dose-response curves for asenapine vs endogenous trace amines (hTA1; M = -7): 27.8234 and 34.8114 and 20.9244 and 18.9489 and 23.9262 and 21.7193 | Normalized Luminescence Counts for WT hTA1 (hTA1; M = -7): 18.9489 and 23.9262 and 21.7193 and 27.8234 and 34.8114 and 20.9244 | Dose-response curves for asenapine vs endogenous trace amines (hTA1; M = -7.522): 9.085 and 11.3326 and 6.214 and 4.299 and 6.271 and 7.5856 | Normalized Luminescence Counts for WT hTA1 (hTA1; M = -7.522): 4.299 and 6.271 and 7.5856 and 9.085 and 11.3326 and 6.214 | Dose-response curves for asenapine vs endogenous trace amines (hTA1; M = -8): 5.413 and 6.147 and 6.2585 and 3.876 and 4.862 and 2.139 | Normalized Luminescence Counts for WT hTA1 (hTA1; M = -8): 3.876 and 4.862 and 2.139 and 5.413 and 6.147 and 6.2585 | Dose-response curves for asenapine vs endogenous trace amines (hTA1; M = -8.522): 0.6725 and 1.273 and 1.229 and 1.059 and 0.777 and -0.209 | Normalized Luminescence Counts for WT hTA1 (hTA1; M = -8.522): 1.059 and 0.777 and -0.209 and 0.6725 and 1.273 and 1.229 | Dose-response curves for asenapine vs endogenous trace amines (hTA1; M = -9): -0.2399 and 0.5835 and -0.9298 and -0.4438 and -0.06817 and 0.0727 | Normalized Luminescence Counts for WT hTA1 (hTA1; M = -9): -0.4438 and -0.06817 and 0.0727 and -0.2399 and 0.5835 and -0.9298 | Dose-response curves for asenapine vs endogenous trace amines (hTA1; M = -9.522): -1.597 and -0.5292 and -1.353 and -0.209 and -0.5377 and 0.777 | Normalized Luminescence Counts for WT hTA1 (hTA1; M = -9.522): -0.209 and -0.5377 and 0.777 and -1.597 and -0.5292 and -1.353 | Dose-response curves for asenapine vs endogenous trace amines (hTA1; M = -10): -0.6182 and -0.1064 and -0.8408 and -0.7725 and -0.5377 and -0.6786 | Normalized Luminescence Counts for WT hTA1 (hTA1; M = -10): -0.7725 and -0.5377 and -0.6786 and -0.6182 and -0.1064 and -0.8408 | Dose-response curves for asenapine vs endogenous trace amines (hTA1; M = -10.522): -0.9521 and -0.1509 and -1.197 and -0.8195 and -1.665 and -1.101 | Normalized Luminescence Counts for WT hTA1 (hTA1; M = -10.522): -0.8195 and -1.665 and -1.101 and -0.9521 and -0.1509 and -1.197 | Dose-response curves for asenapine vs endogenous trace amines (hTA1; M = -11): -0.9075 and -0.3289 and -0.7295 and -0.3969 and 0.2136 and 0.9649 | Normalized Luminescence Counts for WT hTA1 (hTA1; M = -11): -0.3969 and 0.2136 and 0.9649 and -0.9075 and -0.3289 and -0.7295 | Dose-response curves for asenapine vs endogenous trace amines (hTA1; M = -11.522): -0.863 and -0.01735 and -1.531 and -0.9603 and -0.5377 and -0.4908 | Normalized Luminescence Counts for WT hTA1 (hTA1; M = -11.522): -0.9603 and -0.5377 and -0.4908 and -0.863 and -0.01735 and -1.531 | Dose-response curves for asenapine vs endogenous trace amines (hTA1; M = -12): -1.108 and -0.6405 and -1.286 and -1.101 and -0.6786 and -1.477 | Normalized Luminescence Counts for WT hTA1 (hTA1; M = -12): -1.101 and -0.6786 and -1.477 and -1.108 and -0.6405 and -1.286 | Dose-response curves for asenapine vs endogenous trace amines (hTA1; M = -12.522): -1.575 and -1.241 and -2.02 and -0.5377 and -1.054 and -1.242 | Normalized Luminescence Counts for WT hTA1 (hTA1; M = -12.522): -0.5377 and -1.054 and -1.242 and -1.575 and -1.241 and -2.02 | EC50 (hTA1; wt hTA1, HEK293T, n=3, read-out: EC50): 274 nM | EC50 (hTA1 C5S; read-out: EC50): 261 nM | Emax (hTA1 C5S; [1]): 83.2 ± 1.59% | EC50 (hTA1 C88/178S; C88/178S, n=2, read-out: EC50): 205 nM | Emax (hTA1 C88/178S; [1]): 86.3 ± 8.4% | EC50 (hTA1 V184P; V184P, n=2, read-out: EC50): 168 nM | Emax (hTA1 V184P; V184P, n=2, read-out: Span ± SEM (Emax normalized to β-PEA)): 88.3 ± 8.11% | Emax values, Mean (hTA1 V184P; V184S (so in the source), Asenapine, per experiment, 3 replicates): 96.3704 and 80.1474 | EC50 (hTA1 V184P; V184S (so in the source), Asenapine, per experiment, 3 replicates, read-out: pEC50 values Mean (converted)): 246 nM and 114 nM

Source: article PMC10762035, “Molecular basis of human trace amine-associated receptor 1 activation” (Nature Communications, 2024)
